Consider eleven molecules from US10336702B2, “Pharmaceutically active compounds” (BERGENBIO ASA, priority 2015, dated 2019).

Experiment [1] deals with T1, p-Akt1 in LNCaP cells (Homo sapiens, UniProt P31749).
T1 construct: SureFire assays to detect cellular p-Akt1, p-Akt2 and p-Akt3 levels in WM115 cells (Akt2/3) and LNCaP cells (Akt1); endogenous in cells; host or cells: LNCaP (ECACC 89110211)
Briefly: Phospho-Akt cellular SureFire assay, p-Akt1 in LNCaP cells. The following applies: read-out: Biological Assay 2 IC50 (nM) Akt1 LNCaP. It is filed as cell-based. An excerpt:
Biological Assay 2: Phospho-Akt (p-Akt) Cellular SureFire Assays
The following describes SureFire assays to detect cellular p-Akt1, p-Akt2 and p-Akt3 levels in WM115 cells (Akt2/3) and LNCaP cells (Akt1). In the case of Akt2 and Akt3, Streptavidin-coated donor beads capture a biotinylated anti-mouse antibody that in turn recognises a mouse total Akt antibody which is specific to each isoform. The protein A-conjugated acceptor beads capture an antibody that recognises the phosphoprotein. Similarly in the Akt1 kit, the donor and acceptor beads are used to capture each antibody pair consisting of an antibody that specifically recognises Akt1 as well as an antibody that recognises the phosphoprotein. In each case, close proximity of the beads allows energy transfer from donor to acceptor.
AlphaScreen® SureFire™ Phospho-Akt1 (pThr308) Kit from Perkin Elmer (TGRA2S10K)
LNCaP cells (ECACC, 89110211) cultured in RPMI-1640 culture media (Fisher, 10665193) supplemented with 2 mM L-glutamine, 1% sodium pyruvate and 10% FBS
Cell treatment: 1×10^5 WM115 cells or 5×10^4 LNCaP cells were seeded into each well of a 96 well poly-D-Lysine coated tissue culture plate and incubated overnight at 37° C.+5% CO2. Media was removed from cells and replaced with assay buffer consisting of the full culture media described above but with 0.1% FBS instead of 10% FBS. Only WM115 cells were stimulated at 37° C.+5% CO2 for 10 min with 5 μL insulin at a final concentration of 100 nM. Cells were incubated with 5 μL of test compound at a final DMSO concentration of 0.3% for 15 min at 37° C.+5% CO2. Cell lysis was carried out according to kit instructions.
Assay format (performed in subdued lighting): 4 μL cell lysate and 5 μL reaction buffer were incubated together in the dark at room temperature for 2 h. Reaction buffer was supplemented with a 1/5 dilution of activation buffer, a 1/50 dilution of acceptor beads and in the case of the custom kits, antibodies were added at dilutions of 1/20,000 for Akt2 and 1/2,000 for Akt3.
2 μL dilution buffer, supplemented with a 1/20 dilution of donor beads was added to each well and incubated for a further 2 h. Plates were read with the EnVision® Multilabel Plate Reader and using the AlphaScreen settings. Compound IC50 was determined using a 4-parameter equation.

For experiment [2], the target named is T2, Akt1 (Homo sapiens, UniProt P31749).
T2 construct: unspecified tag, removed (detagged) (cleaved yes); purchased SignalChem and Proteros (Akt1); Merck Millipore (PDK1) 14-452 (PDK1); none given for Akt1
Nature of the experiment: Akt activation assay (PDK1-mediated activation, LANCE Ultra crosstide TR-FRET), Akt1. The following applies: read-out: Biological Assay 1 IC50 (nM) Akt1. The format is biochemical. Put shortly: (§1)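 Human Akt1, Akt2 or Akt3 (SignalChem: 5, 15, 3 nM; Proteros: 5 nM each) was preincubated with compound, then activated by 5 nM PDK1 on PtdIns(3,4,5)P3/DOPS/DOPC vesicles with 100 µM ATP and 100 nM ULight-crosstide (HEPES pH 7.5, 1% DMSO) for 30 min. Product was detected by Eu-anti-phospho-crosstide TR-FRET (665/615 nm), with IC50 from a 4-parameter fit.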
Background: TR-FRET usually uses a lanthanide donor and a delayed reading to cut background.

In experiment [3] the target is T3, Akt2 (Homo sapiens, UniProt P31751).
T3 construct: unspecified tag, removed (detagged) (cleaved yes); purchased SignalChem and Proteros (Akt2); Merck Millipore (PDK1) 14-452 (PDK1); none given for Akt2
Briefly: Akt activation assay (PDK1-mediated activation, LANCE Ultra crosstide TR-FRET), Akt2. The format is biochemical. The following applies: read-out: Biological Assay 1 IC50 (nM) Akt2. Put shortly:
as §1

Experiment [4] deals with T4, Akt3 (Homo sapiens, UniProt Q9Y243).
T4 construct: unspecified tag, removed (detagged) (cleaved yes); purchased SignalChem and Proteros (Akt3); Merck Millipore (PDK1) 14-452 (PDK1); none given for Akt3
Briefly: Akt activation assay (PDK1-mediated activation, LANCE Ultra crosstide TR-FRET), Akt3. It is filed as biochemical. The following applies: read-out: Biological Assay 1 IC50 (nM) Akt3. Put shortly:
as §1

The target of experiment [5] is T5, p-Akt2 in WM115 cells (Homo sapiens, UniProt P31751).
T5 construct: SureFire assays to detect cellular p-Akt1, p-Akt2 and p-Akt3 levels in WM115 cells (Akt2/3) and LNCaP cells (Akt1); endogenous in cells; host or cells: WM115 (ECACC 91061232), insulin-stimulated
Nature of the experiment: Phospho-Akt cellular SureFire assay, p-Akt2 in WM115 cells. The format is cell-based. The following applies: insulin stimulated, read-out: Biological Assay 2 IC50 (nM) Akt2 WM115. In a few lines: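 WM115 cells in 0.1% FBS medium stimulated 10 min with 100 nM insulin, then exposed to compound for 15 min at 37° C (0.3% DMSO final). Lysates assayed by AlphaScreen with anti-(pThr308)Akt and isoform-specific total Akt2 antibodies; IC50 from 4-parameter fit.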

Experiment [6] addresses T6, p-Akt3 in WM115 cells (Homo sapiens, UniProt Q9Y243).
T6 construct: SureFire assays to detect cellular p-Akt1, p-Akt2 and p-Akt3 levels in WM115 cells (Akt2/3) and LNCaP cells (Akt1); endogenous in cells; host or cells: WM115 (ECACC 91061232), insulin-stimulated
Briefly: Phospho-Akt cellular SureFire assay, p-Akt3 in WM115 cells. The format is cell-based. To be noted: insulin stimulated, read-out: Biological Assay 2 IC50 (nM) Akt3 WM115. Put shortly:
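WM115 cells were serum-reduced to 0.1% FBS, stimulated with 100 nM insulin for 10 min, then exposed to compound (0.3% DMSO) for 15 min at 37 °C. Lysates were assayed for Thr308-phosphorylated Akt3 by AlphaScreen SureFire using an isoform-specific total Akt3 capture antibody. IC50 was derived from a 4-parameter fit.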

A value given as a limit tells only on which side of the number the result lay.

T3 sequence (P31751 whole entry): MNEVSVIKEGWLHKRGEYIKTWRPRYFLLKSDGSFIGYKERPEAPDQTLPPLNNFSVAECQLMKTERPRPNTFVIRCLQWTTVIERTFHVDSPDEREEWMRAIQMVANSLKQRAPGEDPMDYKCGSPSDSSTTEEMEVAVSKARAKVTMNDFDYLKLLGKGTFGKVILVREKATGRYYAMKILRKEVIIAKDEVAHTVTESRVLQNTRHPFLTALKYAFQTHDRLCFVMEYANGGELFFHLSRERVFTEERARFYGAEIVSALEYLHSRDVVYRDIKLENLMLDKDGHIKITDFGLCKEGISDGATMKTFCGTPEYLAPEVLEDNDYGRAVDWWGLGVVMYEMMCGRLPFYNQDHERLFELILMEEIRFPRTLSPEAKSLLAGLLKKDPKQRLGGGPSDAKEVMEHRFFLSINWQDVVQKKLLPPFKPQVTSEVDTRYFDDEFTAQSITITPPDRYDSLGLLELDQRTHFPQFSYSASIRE
T5 sequence (P31751 whole entry): as above
T1 sequence (P31749 whole entry): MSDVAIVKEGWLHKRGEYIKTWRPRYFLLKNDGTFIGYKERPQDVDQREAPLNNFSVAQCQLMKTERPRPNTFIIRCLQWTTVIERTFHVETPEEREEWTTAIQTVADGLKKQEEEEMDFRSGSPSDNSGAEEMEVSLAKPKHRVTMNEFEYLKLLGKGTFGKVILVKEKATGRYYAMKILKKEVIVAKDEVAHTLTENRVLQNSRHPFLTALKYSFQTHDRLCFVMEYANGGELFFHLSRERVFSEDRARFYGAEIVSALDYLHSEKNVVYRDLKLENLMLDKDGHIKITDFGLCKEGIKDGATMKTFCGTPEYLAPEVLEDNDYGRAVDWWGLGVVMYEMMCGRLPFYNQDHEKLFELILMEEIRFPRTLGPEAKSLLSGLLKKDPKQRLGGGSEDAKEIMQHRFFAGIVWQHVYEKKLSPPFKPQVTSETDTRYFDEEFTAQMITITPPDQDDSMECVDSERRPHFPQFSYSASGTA
T2 sequence (P31749 whole entry): as above
T4 sequence (Q9Y243 whole entry): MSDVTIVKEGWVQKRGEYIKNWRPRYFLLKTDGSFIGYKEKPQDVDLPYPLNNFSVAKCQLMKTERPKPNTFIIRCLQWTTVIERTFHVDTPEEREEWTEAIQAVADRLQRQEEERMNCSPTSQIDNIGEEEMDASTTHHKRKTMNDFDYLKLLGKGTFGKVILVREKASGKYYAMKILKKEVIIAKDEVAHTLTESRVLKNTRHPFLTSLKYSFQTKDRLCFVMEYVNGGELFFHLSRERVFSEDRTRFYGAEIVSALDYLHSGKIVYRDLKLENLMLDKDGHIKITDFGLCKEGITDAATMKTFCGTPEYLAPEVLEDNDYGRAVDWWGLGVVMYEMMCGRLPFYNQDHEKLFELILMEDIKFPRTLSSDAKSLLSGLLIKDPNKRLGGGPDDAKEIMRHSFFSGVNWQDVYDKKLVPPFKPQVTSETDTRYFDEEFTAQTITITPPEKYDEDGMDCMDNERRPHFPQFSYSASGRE
T6 sequence (Q9Y243 whole entry): as above

What is called IC50 is the concentration that gives 50% inhibition. In the case of `CCC(=O)N(C)[C@H]1CC[C@H](CC(=O)Nc2cc(-c3ccccc3)c(-c3ccc([C@]4(N)C[C@](C)(O)C4)cc3)cn2)CC1` [Example 82, N-(trans-4-(2-((5-(4-(trans-1-amino-3-hydroxy-3-methylcyclobutyl)phenyl)-4-phenylpyridin-2-yl)amino)-2-oxoethyl)cyclohexyl)-N-methylpropionamide], the half-maximal inhibitory concentration (IC50) in experiment [1] was 2400 nM; in experiment [2], more than 19000 nM; in experiment [3], 130 nM; in experiment [4], 6 nM; in experiment [5], 380 nM; in experiment [6], 10 nM.

In the case of `CN(C(=O)C1CCC1)[C@H]1CC[C@H](CC(=O)Nc2cnc(-c3ccc(C(C)(C)N)cc3)c(-c3ccccc3)c2)CC1` [Example 47, N-(trans-4-(2-((6-(4-(2-aminopropan-2-yl)phenyl)-5-phenylpyridin-3-yl)amino)-2-oxoethyl)cyclohexyl)-N-methylcyclobutanecarboxamide], the IC50 in experiment [1] is more than 30000 nM; in experiment [2] it was more than 30000 nM; in experiment [3], 6100 nM; in experiment [4], 75 nM; in experiment [5] it was 5300 nM; in experiment [6], 240 nM.

Take `NC1(c2ccc(-c3ncc(NC(=O)[C@@H](F)C4CCN(S(=O)(=O)C5CC5)CC4)cc3-c3ccccc3)cc2)CCC1` [Example 50, (S)—N-(6-(4-(1-aminocyclobutyl)phenyl)-5-phenylpyridin-3-yl)-2-(1-(cyclopropylsulfonyl)piperidin-4-yl)-2-fluoroacetamide]: the IC50 was more than 30000 nM in experiment [1]; 5800 nM in experiment [2]; 670 nM in experiment [3]; 370 nM in experiment [4]; 6800 nM in experiment [5]; 580 nM in experiment [6].

For `N[C@]1(c2ccc(-c3cnc(NC(=O)C[C@H]4CC[C@H](N5CCOC5=O)CC4)cc3-c3ccccc3)cc2)C[C@@H](F)C1` [Example A53, N-(5-(4-(trans-1-amino-3-fluorocyclobutyl)phenyl)-4-phenylpyridin-2-yl)-2-(trans-4-(2-oxooxazolidin-3-yl)cyclohexyl)acetamide], the IC50 in experiment [1] was more than 30000 nM; in experiment [2], more than 30000 nM; in experiment [3], 480 nM; in experiment [4], 39 nM; in experiment [5], 5400 nM; in experiment [6], 410 nM.

Consider `CC(C)(N)c1ccc(-c2ncc(NC(=O)C[C@H]3CC[C@H](N4CCOC4=O)CC3)cc2-c2ccccc2)cc1` [Example 42, N-(6-(4-(2-aminopropan-2-yl)phenyl)-5-phenylpyridin-3-yl)-2-(trans-4-(2-oxooxazolidin-3-yl)cyclohexyl)acetamide], for which the half-inhibitory concentration (IC50) in experiment [1] was more than 30000 nM; in experiment [2] it was more than 30000 nM; in experiment [3] it was 4500 nM; in experiment [4] it was 960 nM; in experiment [5] it was 7900 nM; in experiment [6], 210 nM.

Consider `CCC(=O)N(C)[C@H]1CC[C@H](CC(=O)Nc2cc(-c3ccccc3)c(-c3ccc(C4(N)CC4)c(F)c3)nn2)CC1` [Example A103, N-(trans-4-(2-((6-(4-(1-aminocyclopropyl)-3-fluorophenyl)-5-phenylpyridazin-3-yl)amino)-2-oxoethyl)cyclohexyl)-N-methylpropionamide], for which the 50% inhibitory concentration (IC50) in experiment [1] was more than 30000 nM; in experiment [2], more than 30000 nM; in experiment [3], 2300 nM; in experiment [4] it was 110 nM; in experiment [5], more than 30000 nM; in experiment [6], 730 nM.

As for `COC(=O)N(C(C)C)[C@H]1CC[C@H](CC(=O)Nc2cnc(-c3ccc(C4(N)CCC4)cc3)c(-c3ccccc3)c2)CC1` [Example 51, Methyl (trans-4-(2-((6-(4-(1-aminocyclobutyl)phenyl)-5-phenylpyridin-3-yl)amino)-2-oxoethyl)cyclohexyl)(isopropyl)carbamate], the 50% inhibitory concentration (IC50) in experiment [1] was more than 30000 nM; in experiment [2], 8900 nM; in experiment [3] it was 1500 nM; in experiment [4] it was 190 nM; in experiment [5] it was 9100 nM; in experiment [6] it was 670 nM.

Take `CC(=O)N(C)[C@H]1CC[C@H](CC(=O)Nc2cnc(-c3ccc(C4(N)CCC4)cc3)c(-c3ccccc3F)c2)CC1` [Example 16, N-(6-(4-(1-aminocyclobutyl)phenyl)-5-(2-fluorophenyl)pyridin-3-yl)-2-(trans-4-(N-methylacetamido)cyclohexyl)acetamide]: the half-maximal inhibitory concentration (IC50) is 11000 nM in experiment [1]; 7800 nM in experiment [2]; 380 nM in experiment [3]; 24 nM in experiment [4]; 710 nM in experiment [5]; 45 nM in experiment [6].

As to `CN(C(=O)C(F)F)[C@H]1CC[C@H](CC(=O)Nc2cnc(-c3ccc(C(C)(C)N)cc3)c(-c3ccccc3)c2)CC1` [Example A7, N-(trans-4-(2-((6-(4-(2-aminopropan-2-yl)phenyl)-5-phenylpyridin-3-yl)amino)-2-oxoethyl)cyclohexyl)-2,2-difluoro-N-methylacetamide], the IC50 is more than 30000 nM in experiment [1]; more than 30000 nM in experiment [2]; 5800 nM in experiment [3]; 70 nM in experiment [4]; 7100 nM in experiment [5]; 230 nM in experiment [6].

Consider `COC(=O)N(C)[C@H]1CC[C@H](C(C)C(=O)Nc2cnc(-c3ccc(C(C)(C)N)cc3)c(-c3ccccc3)c2)CC1` (stereo partly drawn) [Example A45, Methyl (trans-4-(1-((6-(4-(2-aminopropan-2-yl)phenyl)-5-phenylpyridin-3-yl)amino)-1-oxopropan-2-yl)cyclohexyl)(methyl)carbamate], for which the concentration for half-maximal inhibition (IC50) in experiment [1] was more than 30000 nM; in experiment [2] it was more than 30000 nM; in experiment [4], 2600 nM; in experiment [5], 12000 nM; in experiment [6] it was 480 nM.

Regarding `COC(=O)N(C(C)C)[C@H]1CC[C@H](CC(=O)Nc2cnc(-c3ccc([C@]4(N)C[C@](C)(O)C4)cc3)c(-c3ccccc3)c2)CC1` [Example 121, Methyl (trans-4-(2-((6-(4-(trans-1-amino-3-hydroxy-3-methylcyclobutyl)phenyl)-5-phenylpyridin-3-yl)amino)-2-oxoethyl)cyclohexyl) (isopropyl)carbamate], the half-maximal inhibitory concentration (IC50) amounted to 1800 nM in experiment [1]; 160 nM in experiment [3]; 7 nM in experiment [4]; 390 nM in experiment [5]; 11 nM in experiment [6].
